# In ChEMBL document CHEMBL1909294, “Translating clinical findings into knowledge in drug safety evaluation--drug induced liver injury prediction system (DILIps)” (PLoS Comput Biol, 2011):
# Where a SMILES comes first, the peptide text is derived from it. Bridges are numbered along the chain shown (N, C = ends). [ ]: non-standard residue; d: D form. The star is where a group is joined. Ileψ(thiazoline)Cys = CC[C@H](C)[C@H](N)C1=N[C@H](C(=O)*)CS1; dOrn = NCCC[C@@H](N)C(=O)O
# Tests used:
# Hepatotoxicity [1] = tested on: Hepatotoxicity;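 on HepSE bilirubinemia: bilirubinemia hepatic side effect score drawn from the DILIps training data, a prediction system for drug-induced liver injury; call rule not given here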;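 on HepSE elevated liver function tests: hepatic side effect score for raised liver function tests, as recorded in the DILIps training set used for predicting drug-induced liver injury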;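 on HepSE hepatomegaly: hepatic side effect score for hepatomegaly, taken from the training set of the DILIps drug-induced liver injury prediction system; call rule not given here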;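 on HepSE jaundice: Jaundice-related hepatic side-effect score drawn from the training data of the DILIps (drug-induced liver injury prediction system); call rule not given here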; on HepSE liver disease: call rule not given here;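 on HepSE liver fatty: hepatic side effect score for fatty liver, taken from the DILIps training set for predicting drug-induced liver injury; call rule not given here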;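 on HepSE liver function tests abnormal: hepatic side effect score taken from the DILIps (drug-induced liver injury prediction system) training data, here covering abnormal liver function test findings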
# Hepatotoxicity [2] = tested on: Hepatotoxicity; remark: listed apart in the source;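 on HepSE elevated liver function tests: hepatic side effect score for raised liver function tests, as recorded in the DILIps training set used for predicting drug-induced liver injury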;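 on HepSE hepatomegaly: hepatic side effect score for hepatomegaly, taken from the training set of the DILIps drug-induced liver injury prediction system; call rule not given here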;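 on HepSE jaundice: Jaundice-related hepatic side-effect score drawn from the training data of the DILIps (drug-induced liver injury prediction system); call rule not given here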; on HepSE liver disease: call rule not given here;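 on HepSE liver fatty: hepatic side effect score for fatty liver, taken from the DILIps training set for predicting drug-induced liver injury; call rule not given here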;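 on HepSE liver function tests abnormal: hepatic side effect score taken from the DILIps (drug-induced liver injury prediction system) training data, here covering abnormal liver function test findings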
# Hepatotoxicity [3] = tested on: Hepatotoxicity; remark: listed apart in the source;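 on HepSE elevated liver function tests: hepatic side effect score for raised liver function tests, as recorded in the DILIps training set used for predicting drug-induced liver injury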;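 on HepSE hepatomegaly: hepatic side effect score for hepatomegaly, taken from the training set of the DILIps drug-induced liver injury prediction system; call rule not given here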;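 on HepSE jaundice: Jaundice-related hepatic side-effect score drawn from the training data of the DILIps (drug-induced liver injury prediction system); call rule not given here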; on HepSE liver disease: call rule not given here;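 on HepSE liver fatty: hepatic side effect score for fatty liver, taken from the DILIps training set for predicting drug-induced liver injury; call rule not given here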;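 on HepSE liver function tests abnormal: hepatic side effect score taken from the DILIps (drug-induced liver injury prediction system) training data, here covering abnormal liver function test findings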
# Hepatotoxicity [4] = tested on: Hepatotoxicity; remark: listed apart in the source;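 on HepSE elevated liver function tests: hepatic side effect score for raised liver function tests, as recorded in the DILIps training set used for predicting drug-induced liver injury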;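 on HepSE hepatomegaly: hepatic side effect score for hepatomegaly, taken from the training set of the DILIps drug-induced liver injury prediction system; call rule not given here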;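 on HepSE jaundice: Jaundice-related hepatic side-effect score drawn from the training data of the DILIps (drug-induced liver injury prediction system); call rule not given here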; on HepSE liver disease: call rule not given here;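 on HepSE liver fatty: hepatic side effect score for fatty liver, taken from the DILIps training set for predicting drug-induced liver injury; call rule not given here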;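 on HepSE liver function tests abnormal: hepatic side effect score taken from the DILIps (drug-induced liver injury prediction system) training data, here covering abnormal liver function test findings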
# Hepatotoxicity [5] = tested on: Hepatotoxicity; remark: listed apart in the source; on HepSE liver disease: call rule not given here
# Hepatotoxicity [6] = tested on: Hepatotoxicity; remark: listed apart in the source; on HepSE liver disease: call rule not given here
# Hepatotoxicity [7] = tested on: Hepatotoxicity; remark: listed apart in the source
# Hepatotoxicity [8] = tested on: Hepatotoxicity; remark: listed apart in the source
# Hepatotoxicity [9] = tested on: Hepatotoxicity; remark: listed apart in the source
# Hepatotoxicity [10] = tested on: Hepatotoxicity; remark: listed apart in the source
# Hepatotoxicity [11] = tested on: Hepatotoxicity; remark: listed apart in the source
# Hepatotoxicity [12] = tested on: Hepatotoxicity; remark: listed apart in the source
# Hepatotoxicity [13] = tested on: Hepatotoxicity; remark: listed apart in the source
# Hepatotoxicity [14] = tested on: Hepatotoxicity; remark: listed apart in the source
Structure (SMILES),HepSE_liver fatty (Hepatotoxicity [1]),HepSE_hepatomegaly (Hepatotoxicity [2]),HepSE_elevated liver function tests (Hepatotoxicity [3]),HepSE_jaundice (Hepatotoxicity [4]),HepSE_cholelithiasis (Hepatotoxicity [5]),HepSE_liver function tests abnormal (Hepatotoxicity [6]),HepSE_liver disease (Hepatotoxicity [7]),HepSE_bilirubinemia (Hepatotoxicity [8]),HepSE_hepatic failure (Hepatotoxicity [9]),HepSE_cholecystitis (Hepatotoxicity [10]),HepSE_hepatitis (Hepatotoxicity [11]),HepSE_cirrhosis (Hepatotoxicity [12]),HepSE_hepatic necrosis (Hepatotoxicity [13]),HepSE_Combined Scores (Hepatotoxicity [14]),also measured
O=C1CCc2ccc(OCCCCN3CCN(c4cccc(Cl)c4Cl)CC3)cc2N1 [ARIPIPRAZOLE],0,1,0,1,1,0,0,1,0,1,1,0,0,6,
O=[As][As+](=O)[O-] (centres undefined) [ARSENIC TRIOXIDE],0,0,0,0,0,0,0,0,0,0,0,0,0,0,
CCCNC(C)C(=O)Nc1c(C)csc1C(=O)OC (centres undefined) [ARTICAINE],0,0,0,0,0,0,0,0,0,0,0,0,0,0,
CC(=O)Oc1ccccc1C(=O)O [ASPIRIN],0,0,0,0,0,0,0,0,0,0,0,0,0,0,
COC(=O)N[C@H](C(=O)N[C@@H](Cc1ccccc1)[C@@H](O)CN(Cc1ccc(-c2ccccn2)cc1)NC(=O)[C@@H](NC(=O)OC)C(C)(C)C)C(C)(C)C [ATAZANAVIR],1,1,0,1,1,0,0,1,0,1,1,0,0,7,
CNCC[C@@H](Oc1ccccc1C)c1ccccc1 [ATOMOXETINE],0,0,0,0,0,1,0,0,0,0,0,0,0,1,
O=C1C(O)=C([C@H]2CC[C@H](c3ccc(Cl)cc3)CC2)C(=O)c2ccccc21 [ATOVAQUONE],0,0,0,0,0,0,0,0,1,0,1,0,0,2,
Cn1cnc([N+](=O)[O-])c1Sc1ncnc2nc[nH]c12 [AZATHIOPRINE],,,,,,,,,,,,,,,HepSE_liver fatty (Hepatotoxicity [1]; Liver): 0; HepSE_hepatomegaly (Hepatotoxicity [2]; Liver): 0; HepSE_elevated liver function tests (Hepatotoxicity [3]; Liver): 0; HepSE_jaundice (Hepatotoxicity [4]; Liver): 0; HepSE_cholelithiasis (Hepatotoxicity [5]; Liver): 0; HepSE_liver function tests abnormal (Hepatotoxicity [6]; Liver): 0; HepSE_liver disease (Hepatotoxicity [7]; Liver): 0; HepSE_bilirubinemia (Hepatotoxicity [8]; Liver): 0; HepSE_hepatic failure (Hepatotoxicity [9]; Liver): 0; HepSE_cholecystitis (Hepatotoxicity [10]; Liver): 0; HepSE_hepatitis (Hepatotoxicity [11]; Liver): 0; HepSE_cirrhosis (Hepatotoxicity [12]; Liver): 0; HepSE_hepatic necrosis (Hepatotoxicity [13]; Liver): 0; HepSE_Combined Scores (Hepatotoxicity [14]; Liver): 0
O=C(O)CCCCCCCC(=O)O [AZELAIC ACID],0,0,0,0,0,0,0,0,0,0,0,0,0,0,
CN1CCCC(n2nc(Cc3ccc(Cl)cc3)c3ccccc3c2=O)CC1 (centres undefined) [AZELASTINE],0,0,0,0,0,0,0,0,0,0,0,0,0,0,
CC[C@H]1OC(=O)[C@H](C)[C@@H](O[C@H]2C[C@@](C)(OC)[C@@H](O)[C@H](C)O2)[C@H](C)[C@@H](O[C@@H]2O[C@H](C)C[C@H](N(C)C)[C@H]2O)[C@](C)(O)C[C@@H](C)CN(C)[C@H](C)[C@@H](O)[C@]1(C)O [AZITHROMYCIN],0,0,0,1,0,1,0,0,1,0,1,0,1,5,
C[C@H]1[C@H](NC(=O)/C(=N\OC(C)(C)C(=O)O)c2csc(N)n2)C(=O)N1S(=O)(=O)O [AZTREONAM],0,0,0,1,0,0,0,0,0,0,1,0,0,2,
CC[C@H](C)[C@H](N)C1=N[C@H](C(=O)N[C@@H](CC(C)C)C(=O)N[C@H](CCC(=O)O)C(=O)N[C@H](C(=O)N[C@H]2CCCCNC(=O)[C@H](CC(N)=O)NC(=O)[C@@H](CC(=O)O)NC(=O)[C@H](Cc3cnc[nH]3)NC(=O)[C@@H](Cc3ccccc3)NC(=O)[C@H]([C@@H](C)CC)NC(=O)[C@@H](CCCN)NC2=O)[C@@H](C)CC)CS1 [BACITRACIN] ({Ileψ(thiazoline)Cys}-L[dE]IK[dOrn]I[dF]H[dD]N; lactam 4-C),0,0,0,0,0,0,0,0,0,0,0,0,0,0,
NCC(CC(=O)O)c1ccc(Cl)cc1 (centres undefined) [BACLOFEN],0,0,0,0,0,0,0,0,0,0,0,0,0,0,
O=C(O)CCNC(=O)c1ccc(/N=N/c2ccc(O)c(C(=O)O)c2)cc1 [BALSALAZIDE],0,0,1,1,0,0,0,0,1,0,0,1,1,5,
C[C@H]1C[C@H]2[C@@H]3CCC4=CC(=O)C=C[C@]4(C)[C@@]3(Cl)[C@@H](O)C[C@]2(C)[C@@]1(O)C(=O)CO [BECLOMETHASONE],0,0,0,0,0,0,0,0,0,0,0,0,0,0,
